Legend:
Experiment in all cases: CYP inhibition assay
Format in all cases: cell-based
[1] = molecular target: CYP2C9 (Homo sapiens, UniProt P11712)
[2] = molecular target: CYP2C19 (Homo sapiens, UniProt P33261)
[3] = molecular target: CYP3A4 (Homo sapiens, UniProt P08684)
[4] = molecular target: CYP2D6 (Homo sapiens, UniProt P10635)
[5] = molecular target: T1, CYP2C8 (Homo sapiens, UniProt P10632)
T1 sequence (P10632 1-490): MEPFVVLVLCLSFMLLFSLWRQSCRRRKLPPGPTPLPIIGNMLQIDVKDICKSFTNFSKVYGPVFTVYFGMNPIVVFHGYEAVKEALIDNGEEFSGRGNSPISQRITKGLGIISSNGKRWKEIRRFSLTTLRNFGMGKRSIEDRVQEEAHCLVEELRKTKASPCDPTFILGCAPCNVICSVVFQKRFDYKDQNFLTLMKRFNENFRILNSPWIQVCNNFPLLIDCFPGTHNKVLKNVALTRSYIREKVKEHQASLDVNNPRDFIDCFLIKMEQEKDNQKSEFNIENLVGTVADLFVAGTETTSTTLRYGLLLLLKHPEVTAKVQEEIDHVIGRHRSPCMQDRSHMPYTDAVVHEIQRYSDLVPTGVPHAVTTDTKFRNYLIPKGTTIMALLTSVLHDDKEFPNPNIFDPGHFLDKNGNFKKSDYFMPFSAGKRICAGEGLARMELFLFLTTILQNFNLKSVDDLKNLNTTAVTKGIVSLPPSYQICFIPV

[6] = system: CYP1A; settings: read-out: CYP1A

Sequence of CYP2C19 (P33261 whole entry): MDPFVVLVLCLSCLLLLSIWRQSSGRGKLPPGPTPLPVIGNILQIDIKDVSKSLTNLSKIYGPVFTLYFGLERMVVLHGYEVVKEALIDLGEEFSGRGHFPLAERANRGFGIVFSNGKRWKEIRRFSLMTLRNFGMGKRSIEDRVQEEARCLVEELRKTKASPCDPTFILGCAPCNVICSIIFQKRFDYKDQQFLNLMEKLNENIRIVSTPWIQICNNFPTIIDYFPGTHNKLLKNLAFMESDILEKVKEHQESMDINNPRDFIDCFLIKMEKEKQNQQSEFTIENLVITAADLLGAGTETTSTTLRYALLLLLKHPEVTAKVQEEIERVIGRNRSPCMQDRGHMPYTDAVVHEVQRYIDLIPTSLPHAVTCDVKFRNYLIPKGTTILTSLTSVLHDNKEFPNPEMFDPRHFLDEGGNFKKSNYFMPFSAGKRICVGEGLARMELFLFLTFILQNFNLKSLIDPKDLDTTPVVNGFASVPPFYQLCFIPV
Sequence of CYP3A4 (P08684 2-503): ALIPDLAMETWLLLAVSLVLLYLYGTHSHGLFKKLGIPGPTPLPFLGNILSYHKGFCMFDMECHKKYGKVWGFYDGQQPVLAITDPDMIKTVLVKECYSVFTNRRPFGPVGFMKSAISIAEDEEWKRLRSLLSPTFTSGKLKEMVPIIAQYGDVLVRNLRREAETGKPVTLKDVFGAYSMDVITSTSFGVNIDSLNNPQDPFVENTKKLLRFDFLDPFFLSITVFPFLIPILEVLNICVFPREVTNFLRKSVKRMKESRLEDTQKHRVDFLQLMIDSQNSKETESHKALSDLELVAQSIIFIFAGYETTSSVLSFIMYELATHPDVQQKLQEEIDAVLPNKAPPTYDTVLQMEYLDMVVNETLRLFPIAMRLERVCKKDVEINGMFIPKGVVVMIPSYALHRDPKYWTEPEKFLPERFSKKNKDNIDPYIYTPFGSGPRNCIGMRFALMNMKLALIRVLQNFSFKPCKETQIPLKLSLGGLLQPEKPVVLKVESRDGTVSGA
Sequence of CYP2D6 (P10635 whole entry): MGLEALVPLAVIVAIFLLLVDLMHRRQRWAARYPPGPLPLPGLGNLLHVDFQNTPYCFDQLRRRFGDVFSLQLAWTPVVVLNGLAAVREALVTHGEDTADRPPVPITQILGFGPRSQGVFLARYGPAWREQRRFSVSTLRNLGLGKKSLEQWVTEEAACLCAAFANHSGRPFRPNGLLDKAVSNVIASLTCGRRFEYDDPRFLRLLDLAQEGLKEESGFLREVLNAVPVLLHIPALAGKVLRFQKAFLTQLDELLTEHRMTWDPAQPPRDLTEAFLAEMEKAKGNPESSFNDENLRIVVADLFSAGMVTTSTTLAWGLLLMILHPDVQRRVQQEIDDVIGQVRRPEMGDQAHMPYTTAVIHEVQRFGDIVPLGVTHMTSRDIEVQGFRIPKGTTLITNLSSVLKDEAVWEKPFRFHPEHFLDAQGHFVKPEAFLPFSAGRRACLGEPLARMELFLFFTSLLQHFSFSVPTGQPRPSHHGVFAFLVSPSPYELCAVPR
Sequence of CYP2C9 (P11712 whole entry): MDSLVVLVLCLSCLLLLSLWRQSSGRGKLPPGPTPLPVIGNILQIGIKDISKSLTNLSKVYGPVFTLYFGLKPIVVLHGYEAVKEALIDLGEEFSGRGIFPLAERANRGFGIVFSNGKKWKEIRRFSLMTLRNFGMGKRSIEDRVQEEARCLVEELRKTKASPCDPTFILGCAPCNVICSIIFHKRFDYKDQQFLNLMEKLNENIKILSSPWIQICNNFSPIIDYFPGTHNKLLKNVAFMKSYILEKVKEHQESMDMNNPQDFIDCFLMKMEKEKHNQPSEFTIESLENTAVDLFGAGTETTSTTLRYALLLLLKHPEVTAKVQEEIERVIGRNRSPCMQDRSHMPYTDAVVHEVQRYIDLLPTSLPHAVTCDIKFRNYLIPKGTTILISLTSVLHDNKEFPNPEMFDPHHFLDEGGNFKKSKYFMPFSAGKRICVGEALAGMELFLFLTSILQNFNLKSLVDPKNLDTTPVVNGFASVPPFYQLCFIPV

IC50 [1]	IC50 [2]	IC50 [3]	IC50 [4]	IC50 [5]	IC50 [6]	Compound
3330 ± 710 nM	< 400 nM	400 ± 60 nM	2710 ± 120 nM	640 ± 90 nM	10400 ± 410 nM	CN(C[c-]1cccc1)CC(O)(Cn1cncn1)c1ccc(F)cc1F.Cl.[Fe+2].c1cc[cH-]c1 (stereo not shown) [2a, N-(ferrocenylmethyl)-2-(2,4-difluorophenyl)-2-hydroxy-N-methyl-3-(1H-1,2,4-triazol-1-yl)propan-1-aminium chloride]
					> 100000 nM	OC(Cn1cncn1)(Cn1cncn1)c1ccc(F)cc1F [Fluconazole]
